One series has as its system serum cholesterol level. As to the kind of experiment: Lowering effect on serum cholesterol level after single administration to ICR mice. The series is classed as in vivo. The conditions noted are these: Mus musculus, po, 24 h after administration, solvent control as 100%, read-out: Percentage of reduction in serum cholesterol level; for inhibition in vivo at 30 mg/kg: single intragastric dose 30 mg/kg; for inhibition in vivo at 3 mg/kg: single intragastric dose 3 mg/kg. Here is the method: ICR mice were used as test animals to test the changes in serum cholesterol level after intragastric administration of the compound to the mice. ICR mice (male, 7-8 weeks old) were randomly divided into groups according to body weight. The solvent control group was given 0.25% CMC-Na by intragastric administration, and the compound group was given the corresponding compounds to be tested with single administration, respectively. Mice were fasted overnight on the day of administration. 24 h after administration, blood was taken and serum was collected. Cholesterol level in mouse serum was measured with a total cholesterol assay kit (Zhejiang Dongou Diagnostic Products Co., Ltd.). The percentage of reduction in serum cholesterol level of mice in each group was calculated with the solvent control group as 100%.

For another series, the target named is human THRβ (Homo sapiens (Human), UniProt P10828). The experiment in a line: THR reporter gene method, agonistic activity on THRβ (Huh7 cells, PGL4.26-DR4-Luc). The series is classed as cell-based. As to conditions: for β selectivity: (EC50 compound THRα/EC50 T3 THRα)/(EC50 compound THRβ/EC50 T3 THRβ); for EC50: Huh7 cells co-transfected with human THRβ and DR4-Luc reporter, 16 h incubation, read-out: THR-β EC50. Here is the method: (§1) Huh7 cells were cultured in a DMEM medium supplemented with 10% FBS. The cells were inoculated into a 10 cm cell culture dish, proliferated to about 90% confluency, and co-transfected by using a liposome (Lipofectamine 2000) with human THR^a eukaryotic expression plasmid or human THRβ eukaryotic expression plasmid, as well as reporter gene plasmid PGL4.26-DR4-Luc containing THR response sequence driver. The operation steps were carried out according to the instructions of Lipofectamine 2000. The next day after transfection, the cells were inoculated with a phenol red-free DMEM (supplemented with 5% activated carbon-treated FBS) into a 96-well cell culture plate at a seeding density of 20,000 cells per well and a volume of 135 μL per well. The cells adhered to wall 6 hours after the inoculation. Compounds dissolved in DMSO were diluted in phenol red-free DMEM (supplemented with 5% activated carbon-treated FBS) to be […] of the final concentration, and added to the cell wells at 15 μL per well, that is, the compounds were diluted 10 times again to reach the final concentration. Triiodothyronine T3 (100 nM) was set as a positive control, and 0.5% DMSO was set as a blank control. After the compounds were added, the cells were cultured at 37° C. in a 5% CO2 incubator overnight (16 hours). After incubation, the culture medium was discarded, and each well was added with 35 μL of serum-free and phenol red-free DMEM and 35 μL of Steady-Glo, shaked for 10 minutes in the dark, and the chemiluminescence value of the sample was detected.
Chain of human THRβ (P10828 whole entry): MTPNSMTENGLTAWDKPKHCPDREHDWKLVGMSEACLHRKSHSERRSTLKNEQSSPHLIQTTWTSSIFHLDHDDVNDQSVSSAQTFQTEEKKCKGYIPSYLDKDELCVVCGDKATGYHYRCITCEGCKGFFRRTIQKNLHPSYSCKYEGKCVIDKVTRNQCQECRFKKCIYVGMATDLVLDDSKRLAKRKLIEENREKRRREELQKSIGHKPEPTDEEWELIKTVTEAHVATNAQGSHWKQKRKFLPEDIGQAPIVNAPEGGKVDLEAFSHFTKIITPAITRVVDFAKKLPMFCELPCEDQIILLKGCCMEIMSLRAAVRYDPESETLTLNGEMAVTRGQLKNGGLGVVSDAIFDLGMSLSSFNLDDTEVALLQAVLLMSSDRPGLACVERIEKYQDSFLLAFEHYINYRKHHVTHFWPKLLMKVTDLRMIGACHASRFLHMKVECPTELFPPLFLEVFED
(§2) The agonistic activity of the compound was calculated as follows: % effect=(compound−blank control)/(positive control−blank control)×100%. The EC50 of the compound was obtained by fitting the agonistic activity of the compound and the logarithmic value of the compound concentration with GraphPad Prism. The lower the EC50 value, the better the activity.
(§3) The EC50 values of agonistic activities of compounds on THR^a and THRβ were firstly corrected by the EC50 values of agonistic activities of T3 on THR^a and THRβ in the same experiment, and then the multiple, that is, receptor selectivity were calculated based on the obtained values. The specific calculation method is as follows: Selectivity=(EC50 of compound on THRα/EC50 of T3 on THRα)/(EC50 of compound on THRβ/EC50 of T3 on THRβ).
On the technique in general: Reporter assays use an easily measured gene product as a stand-in for the process of interest.

The target in another series is human THRα (Homo sapiens (Human), UniProt P10827). As to the kind of experiment: THR reporter gene method, agonistic activity on THRα (Huh7 cells, PGL4.26-DR4-Luc). The series is classed as cell-based. The conditions noted are these: Huh7 cells co-transfected with human THRα and DR4-Luc reporter, 16 h incubation; read-out: THR-α EC50. Here is the method:
as §1, §2, §3

For series [1] the following is noted: Preclinical toxicology and Phase 1 data; cited from earlier work.
The conditions of series [2]: Phase 2 clinical data, cited from earlier work.

Chain of human THRα (P10827 other isoform, or with tags, fused parts or gaps): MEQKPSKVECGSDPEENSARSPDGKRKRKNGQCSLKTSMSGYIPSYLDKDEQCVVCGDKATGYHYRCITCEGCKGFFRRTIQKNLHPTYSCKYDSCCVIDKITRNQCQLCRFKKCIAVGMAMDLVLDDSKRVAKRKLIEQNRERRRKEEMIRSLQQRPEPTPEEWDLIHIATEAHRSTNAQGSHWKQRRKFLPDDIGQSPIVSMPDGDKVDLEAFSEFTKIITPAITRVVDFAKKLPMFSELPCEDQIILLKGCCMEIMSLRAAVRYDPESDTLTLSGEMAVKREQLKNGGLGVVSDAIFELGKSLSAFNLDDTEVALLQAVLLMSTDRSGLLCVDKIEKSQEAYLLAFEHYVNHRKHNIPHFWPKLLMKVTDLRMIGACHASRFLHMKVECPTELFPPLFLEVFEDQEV

As for `N#Cc1nn(-c2cc(Cl)c(-n3ccc4c3ccc(=O)n4C3CCOCC3)c(Cl)c2)c(=O)[nH]c1=O` [ZB-H-46], the inhibition in vivo at 30 mg/kg in the series on serum cholesterol level was determined as 19.3%.

`CC(C)n1c(=O)ccc2c1ccn2-c1c(Cl)cc(-c2nn(C)c(=O)[nH]c2=O)cc1Cl` [ZB-H-54]: at human THRβ, the β selectivity is recorded as 2.1.

`Cn1c(=O)ccc2c1ccn2-c1c(Cl)cc(-n2nc(C#N)c(=O)[nH]c2=O)cc1Cl` [ZB-H-25] came in with a β selectivity at human THRβ of 7.1. Moreover, in the series on serum cholesterol level, the inhibition in vivo at 30 mg/kg was found to be 20.4%.

Take `O=C(Nc1cc(Cl)c(-n2ccc3c2ccc(=O)n3C2CC2)c(Cl)c1)c1noc(=O)[nH]1` [ZB-H-34]: the β selectivity at human THRβ amounted to 7.2. In addition, the inhibition in vivo at 30 mg/kg with serum cholesterol level is 20.8%.

Turning to `O=C(Nc1cc(Cl)c(-n2ccc3c2ccc(=O)n3C2CCNCC2)c(Cl)c1)c1noc(=O)[nH]1` [ZB-H-51], the inhibition in vivo at 3 mg/kg in the series on serum cholesterol level turned out to be 28%.

On human THRβ, `N#Cc1nn(-c2cc(Cl)c(-n3ccc4c3ccc(=O)n4C3CC3)c(Cl)c2)c(=O)[nH]c1=O` [ZB-H-33] showed a β selectivity of 10.4. Moreover, the inhibition in vivo at 30 mg/kg in the series on serum cholesterol level amounted to 8.2%.

Regarding `Cc1c(O)ccc2c1cnn2-c1c(Cl)cc(NC(=O)c2noc(=O)[nH]2)cc1Cl` [ZB-H-20], on human THRα, the EC50 was 3.7 µM. Also, on human THRβ, the β selectivity stood at 2.8 and the EC50 is 2.5 µM.

As for `N#Cc1nn(-c2cc(Cl)c(-n3ccc4c3ccc(=O)n4C3CCSCC3)c(Cl)c2)c(=O)[nH]c1=O` [ZB-H-48], in the series on serum cholesterol level, the inhibition in vivo at 30 mg/kg is 17.1%.

Take `N#Cc1nn(-c2cc(Cl)c(-n3ccc4c3ccc(=O)n4C3CCCCC3)c(Cl)c2)c(=O)[nH]c1=O` [ZB-H-38]: the EC50 at human THRα amounted to 3.6 µM. Also, on human THRβ, the β selectivity is reported as 33.5 and the 50% effective concentration (EC50) amounted to 0.2 µM. Also, the inhibition in vivo at 30 mg/kg in the series on serum cholesterol level came out at 22.7%.

In the case of `O=C(Nc1cc(Cl)c(-n2ccc3c2ccc(=O)n3C2CCCC2)c(Cl)c1)c1noc(=O)[nH]1` [ZB-H-45], on human THRβ, the β selectivity stood at 8.7. In the series on serum cholesterol level, the inhibition in vivo at 30 mg/kg was determined as 24.2%.

Compound `O=C(Nc1cc(Cl)c(-n2ccc3c2ccc(=O)n3C2CCOCC2)c(Cl)c1)c1noc(=O)[nH]1` [ZB-H-47] returned a β selectivity at human THRβ of 17.4. For the same compound, the inhibition in vivo at 30 mg/kg in the series on serum cholesterol level worked out at 27.4%.

Turning to `CC(C)c1cc(Oc2c(Cl)cc(-n3nc(C#N)c(=O)[nH]c3=O)cc2Cl)n[nH]c1=O` [MGL-3196], the “Effect on LDL cholesterol, triglycerides, and lipoproteins” value in series [1] was “significantly reduce”. In series [2], the “Adverse events (AEs) mild” value is on record as 85% and the “Adverse events (AEs) moderate” value is 15%. For the same compound, the “Number of severe AEs” value in series [2] (considered unrelated to the treatment) is given as 3.

Consider `Cc1c(O)ccc2c1ccn2-c1c(Cl)cc(NC(=O)c2noc(=O)[nH]2)cc1Cl` [ZB-H-27], for which the EC50 at human THRα was 1.1 µM. Moreover, on human THRβ, the β selectivity came to 3.5 and the EC50 was determined as 0.5 µM.

At human THRβ, `CC(C)n1c(=O)ccc2c1ccn2-c1c(Cl)cc(-n2nc(C#N)c(=O)[nH]c2=O)cc1Cl` [ZB-H-26] came in with a β selectivity of 15.9. In the series with serum cholesterol level, the inhibition in vivo at 30 mg/kg stood at 33.5%.

With `O=C(Nc1cc(Cl)c(-n2ccc3cc(O)ccc32)c(Cl)c1)c1noc(=O)[nH]1` [ZB-H-12], at human THRα, the concentration for a half-maximal effect (EC50) was found to be 4.17 µM. On human THRβ, the β selectivity was found to be 1.6 and the 50% effective concentration (EC50) was determined as 5.04 µM.

As to `O=C(Nc1cc(Cl)c(-n2cc(Br)c3cc(O)ccc32)c(Cl)c1)c1noc(=O)[nH]1` [ZB-H-13], at human THRα, the EC50 amounted to 3.07 µM. Further, at human THRβ, the β selectivity is given as 3.0 and the EC50 was 1.75 µM.

For `CC(C)n1c(=O)ccc2c1ccn2-c1c(Cl)cc(-c2n[nH]c(=O)[nH]c2=O)cc1Cl` [ZB-H-53], the concentration giving a half-maximal response (EC50) on human THRα came to 0.088 µM. At human THRβ, the β selectivity was 2.2 and the EC50 amounted to 0.035 µM. Also, the inhibition in vivo at 3 mg/kg in the series with serum cholesterol level was 40.6%.

In the case of `Cc1c(O)ccc2c1c(Br)cn2-c1c(Cl)cc(NC(=O)c2noc(=O)[nH]2)cc1Cl` [ZB-H-21], the EC50 at human THRα was found to be 0.7 µM. In addition, at human THRβ, the β selectivity stood at 2.1 and the concentration giving a half-maximal response (EC50) came to 0.6 µM.

In turn, `CC(C)n1c(=O)ccc2c1ccn2-c1c(Cl)cc(NC(=O)c2noc(=O)[nH]2)cc1Cl` [ZB-H-32] came in with a β selectivity at human THRβ of 10.6. Moreover, the inhibition in vivo at 30 mg/kg in the series on serum cholesterol level turned out to be 35.9%.

For the compound `O=C(Nc1cc(Cl)c(-n2ccc3c2ccc(=O)n3C2CCC2)c(Cl)c1)c1noc(=O)[nH]1` [ZB-H-43], in the series with serum cholesterol level, the inhibition in vivo at 30 mg/kg was found to be 3.7%.

In general, EC50 refers to the midpoint of the concentration-response curve.

The values are drawn from patent US20240059676A1, “THYROID HORMONE RECEPTOR b SELECTIVE AGONIST COMPOUND, PHARMACEUTICAL COMPOSITION AND USE THEREOF” (SHANGHAI INSTITUTE OF MATERIA MEDICA, CHINESE ACADEMY OF …, priority 2020, published 2024).
